# Assay results published in ChEMBL document CHEMBL4613224, “Synthesis, in-vitro antiprotozoal activity and molecular docking study of isothiocyanate derivatives” (Bioorg Med Chem, 2020).
# The source made the active and inactive calls. The rule behind the calls is not given here.
# Assays:
# [1] = Selectivity index, ratio of IC50 for rat L6 cells assessed as reduction in cell viability measured after 72 hrs by Alamar blue based inverted microscopy analysis to IC50 for Leishmania donovani MHOM-ET-67/L82 axenic amastigotes assessed as parasite growth inhibition measured after 72 hrs by Alamar blue based inverted microscopy analysis; type: toxicity; details: for selectivity ratio at 72 h: L6 cells, read-out: Ratio IC50
# Leishmania donovani [2] = assay: Antileishmanial activity against Leishmania donovani MHOM-ET-67/L82 axenic amastigotes assessed as parasite growth inhibition at 2 to 10 ug/ml measured after 72 hrs by Alamar blue based inverted microscopy analysis relative to control; type: functional
# L6 = assay: Cytotoxicity against rat L6 cells assessed as reduction in cell viability measured after 72 hrs by Alamar blue based inverted microscopy analysis; details: L6, 72 h
# [3] = tested on: Trypanosoma brucei rhodesiense; assay: Antitrypanosomal activity against bloodstream Trypanosoma brucei rhodesiense STIB900 assessed as parasite growth inhibition measured after 70 hrs by Alamar blue assay; type: functional, organism-based; details: STIB900, 70 h
# Trypanosoma cruzi = assay: Antitrypanosomal activity against Trypanosoma cruzi Tulahuen C4 trypomastigotes infected in rat L6 cells assessed as parasite growth inhibition at 2 ug/ml measured after 96 hrs by inverted microscopy analysis relative to control; type: functional
# [4] = Selectivity index, ratio of IC50 for rat L6 cells assessed as reduction in cell viability measured after 72 hrs by Alamar blue based inverted microscopy analysis to IC50 for bloodstream Trypanosoma brucei rhodesiense STIB900 assessed as parasite growth inhibition measured after 70 hrs by Alamar blue assay; type: toxicity; details: read-out: Ratio IC50
# [5] = tested on: Trypanosoma brucei rhodesiense; assay: Antitrypanosomal activity against bloodstream Trypanosoma brucei rhodesiense STIB900 assessed as parasite growth inhibition at 2 ug/ml measured after 70 hrs by Alamar blue assay relative to control; type: functional; details: for inhibition at 2 µg/mL: STIB900, 70 h
# Leishmania donovani [6] = assay: Antileishmanial activity against Leishmania donovani MHOM-ET-67/L82 axenic amastigotes assessed as parasite growth inhibition measured after 72 hrs by Alamar blue based inverted microscopy analysis; type: functional, organism-based; details: MHOM-ET-67/L82, 72 h
# Plasmodium falciparum = assay: Antiplasmodial activity against Plasmodium falciparum NF54 measured after 24 hrs in presence of [3H] hypoxanthine by liquid scintillation counter analysis; type: functional, organism-based
# [7] = Selectivity index, ratio of IC50 for rat L6 cells assessed as reduction in cell viability measured after 72 hrs by Alamar blue based inverted microscopy analysis to IC50 for Plasmodium falciparum NF54 measured after 24 hrs in presence of [3H] hypoxanthine by liquid scintillation counter analysis; type: toxicity; details: read-out: Ratio IC50
SMILES,selectivity ratio at 72 h [1],inhibition (INH) (Leishmania donovani [2]) [%],IC50 (L6; read-out: IC50) [µM],IC50 [3] [µM],inhibition (Trypanosoma cruzi),selectivity ratio at 72 h [4],inhibition at 2 µg/mL [5] [%],IC50 (Leishmania donovani [6]) [µM],IC50 (Plasmodium falciparum) [µM],selectivity ratio at 72 h [7],inhibition (Leishmania donovani [2]),IC50 (L6) [µM],inhibition [5],Ratio IC50 ([1]; 72 h)
C[C@@H](CCCN=C=S)[C@H]1CC[C@H]2[C@@H]3[C@H](O)C[C@@H]4C[C@H](O)CC[C@]4(C)[C@H]3CC[C@]12C,3.6,>90,5.4,4.5,inactive,1.2,> 50,1.5,4.9,1.1,,,,
S=C=NCc1ccccc1 [BENZYL ISOTHIOCYANATE],,,,,inactive,,> 50,,,,inactive,,,
COc1ccc2c(c1OC)CO[C@@H]2[C@H]1c2c(cc3c(c2OC)OCO3)CCN1C(CN=C=S)c1ccc2c(c1)Cc1ccccc1-2 (some centres not stated),3.1,>90,3.9,6.5,inactive,0.6,> 50,1.3,2.6,1.5,,,,
C[C@@H](CCCN=C=S)[C@H]1CC[C@H]2[C@@H]3[C@H](O)C[C@@H]4C[C@H](O)CC[C@]4(C)[C@H]3C[C@H](O)[C@]12C,7.8,>90,3.9,1.3,inactive,2.9,> 50,0.5,5.2,0.7,,,,
C[C@@H](CCCN=C=S)[C@H]1CC[C@H]2[C@@H]3CC[C@@H]4C[C@H](O)CC[C@]4(C)[C@H]3CC[C@]12C,0.8,>90,4.5,9.7,inactive,0.5,> 50,5.4,4.1,1.1,,,,
Fc1ccc(N=C=S)cc1,,,287,46.6,inactive,6.2,> 50,,,,inactive,,,
COc1cc([C@@H]2c3cc4c(cc3[C@H](O)[C@H]3COC(=O)[C@H]23)OCO4)cc(OC)c1OC [PODOFILOX],,,,,,,,,,,,0.012,,
COc1ccc2c(c1OC)CO[C@@H]2[C@H]1c2c(cc3c(c2OC)OCO3)CCN1C(CN)c1ccc(C)cc1 (some centres not stated),,,23.3,1,,24.4,> 50,,1.8,12.8,,,,
C[C@@H](CCC(N)=O)[C@H]1CC[C@H]2[C@@H]3CC[C@@H]4C[C@H](O)CC[C@]4(C)[C@H]3CC[C@]12C,,,,,,,,,,,,,inactive,
C[C@@H](CCCN=C=S)[C@H]1CC[C@H]2[C@@H]3[C@@H](O)C[C@@H]4C[C@H](O)CC[C@]4(C)[C@H]3CC[C@]12C,,>90,4.3,1.6,inactive,2.7,> 50,,,,,,,
C[C@@H](CCC(N)=O)[C@H]1CC[C@H]2[C@@H]3CC[C@@H]4C[C@H](O)CC[C@]4(C)[C@H]3C[C@H](O)[C@]12C,,,,,,,,,,,,,inactive,
COc1ccc2c(c1OC)CO[C@@H]2[C@H]1c2c(cc3c(c2OC)OCO3)CCN1C(CN=C=S)c1ccc(C)cc1 (some centres not stated),1.7,>90,1.5,3.1,inactive,0.5,> 50,0.8,1.1,1.4,,,,
C[C@@H](CCC(N)=O)[C@H]1CC[C@H]2[C@@H]3[C@H](O)C[C@@H]4C[C@H](O)CC[C@]4(C)[C@H]3C[C@H](O)[C@]12C,,,,,,,,,,,,,inactive,
COc1ccc2c(c1OC)CO[C@@H]2[C@H]1c2c(cc3c(c2OC)OCO3)CCN1[C@@H](CN=C=S)c1ccc(F)cc1,17.5,>90,13.6,1.7,inactive,8,> 50,0.8,2.1,6.5,,,,
COc1ccc(N=C=S)cc1OC,,,,,inactive,,50,,,,inactive,,,
COc1ccc2c(c1OC)CO[C@@H]2[C@H]1c2c(cc3c(c2OC)OCO3)CCN1C(CN)c1ccccc1 (some centres not stated),,,12.1,1.4,,8.8,> 50,,2,6,,,,
COc1ccc2c(c1OC)CO[C@@H]2[C@H]1c2c(cc3c(c2OC)OCO3)CCN1C(CN)c1ccc2c(c1)Cc1ccccc1-2 (some centres not stated),,,19.6,3.5,,5.6,> 50,,1.8,11.2,,,,
Nc1nc(N)nc(Nc2ccc([As]3SCC(CO)S3)cc2)n1 (configuration not stated) [MELARSOPROL],,,24.2,,,3230,,,,,,,,
Cc1ccc(N=C=S)cc1,,,325,37.1,inactive,8.8,> 50,,,,inactive,,,
COc1ccc2c(c1OC)CO[C@@H]2[C@H]1c2c(cc3c(c2OC)OCO3)CCN1[C@@H](CN)c1cccnc1,,,14.4,3.9,,3.7,> 50,,,,,,,
COC(=O)[C@H](Cc1c[nH]c2ccccc12)N=C=S,10.9,>90,78.1,22.5,inactive,3.5,> 50,7.1,10.2,7.7,,,,14.4
COc1ccc2c(c1OC)CO[C@@H]2[C@H]1c2c(cc3c(c2OC)OCO3)CCN1C(CN=C=S)c1ccccc1 (some centres not stated),18.4,>90,18.7,2.3,inactive,8.2,> 50,1,3.7,5.07,,,,
CCc1ccccc1N=C=S,,,,,inactive,,> 50,,,,inactive,,,
COC(=O)[C@H](Cc1ccccc1)N=C=S,14.4,>90,13.9,,inactive,,> 50,1,,,,,,
